Drawing on ChEMBL document CHEMBL5316353, “Antitarget, Anti-SARS-CoV-2 Leads, Drugs, and the Drug Discovery-Genetics Alliance Perspective” (J Med Chem, 2023), this text covers IC50, CC50 and Activity for two molecules.

The structures appear in SMILES notation.

For one series, the system named is SARS-CoV. The experiment in a line: Antiviral activity against SARS-CoV-1 infected in HAE cells assessed as inhibition of viral replication. The format is functional, organism-based. The settings on record: Severe acute respiratory syndrome-related coronavirus.
Series [1] is described as follows: Cytotoxicity in African green monkey Vero cells by MTT assay. The settings on record: chlorocebus sabaeus. The format is toxicity, cell-based. In general terms: Formazan colour is commonly taken as a measure of viable cells.
Another series deals with SARS-CoV-2. The experiment in a line: Antiviral activity against SARS Cov-2 pseudovirions assessed as inhibition of viral entry into 293/hACE2 cells at 2 uM relative to control. The series is classed as functional, Severe acute respiratory syndrome coronavirus 2, 293T/ACE2. The arrangement: scale not given: the % may be the effect or the level left.

Take `CCC(CC)COC(=O)[C@H](C)NP(=O)(OC[C@@H]1O[C@](C#N)(c2ccc3c(N)ncnn23)[C@@H](O)[C@H]1O)Oc1ccccc1` (stereo partly drawn): the IC50 (usually the concentration needed to halve the response being measured) with SARS-CoV was determined as 69 nM. In addition, the CC50 (in general, the concentration at which the toxic effect on the cells reaches its halfway point) in series [1] was greater than 100 µM.

With `CCc1ccccc1NC(=O)CSC(=O)NNC(=O)[C@H](Cc1c[nH]c2ccccc12)NC(=O)OC(C)(C)C`, in the series on SARS-CoV-2, the Activity is listed as roughly 76%.
